# Article PMC12040169 (PLOS Biology, 2025)
# Assay: in vitro
# Settings: human, hela cells
row,Compound,"viability at 28.5 h, 10 µM [%]"
1,CC(C)CN(/C=N/c1nc(OC(=O)N(c2ccccc2)c2ccccc2)nc2c1ncn2C1CC(O)C(CO)O1)CC(C)C (centres unmarked) [CBK201170],93

# Same assay, conditions: human, hela cells, % viability
row,Compound,"viability at 28.5 h, 10 µM [%]"
1,Clc1ccc(COc2ccccc2OCc2ccccc2)s1 [CBK002766],87.7
2,CC(=O)N[C@H](CC(N)=O)C(=O)N1CCC2(C/C=C/C[C@@H]3COCC[C@@H]3NC(=O)[C@@H](CC(C)C)NC2=O)CC1 [CBK292207],106
3,N#CCCCN1CCCN(c2nccc(OCC3COc4ccccc4O3)n2)CC1 (centres unmarked) [CBK083977],90.2
4,CC(C)n1cnnc1CN(C)C(=O)CCc1nc2ccccc2s1 [CBK304638],97
5,O=C(Nc1ccc(Br)cc1C(=O)O)c1cccs1 [CBK066822],86.8
6,CCCCC1CCC(C(=O)Nc2ncccn2)CC1 (centres unmarked) [CBK027423],113
7,Fc1ccc(-c2ccc(CNCc3ccncc3)o2)cc1 [CBK270158C],92.7
8,C=CCC1(CC=C)CCN1C(=O)c1cc(-c2c(C)nn(C)c2C)n[nH]1 [CBK282575],82.2
9,Cn1c(=O)c(C(=O)Nc2ccc(Cl)cc2)cc2cccnc21 [CBK287741],94.4
10,Fc1ccc(CNCCN2CCOCC2)cc1 [CBK278192C],105
11,O=C1N=C(NC2C3CC4CC(C3)CC2C4)OC12CCN(CCC(F)(F)F)CC2 (centres unmarked) [CBK115640],91.4
12,CS(=O)(=O)CS(=O)(=O)C1=C(N2CCOCC2)C2CCN1CC2 [CBK019499],87.5
13,c1csc(CSc2nnc3sc4ccccc4n23)c1 [CBK266291],87.9
14,COCC(=O)NCC1Cc2cc(F)cc(-c3ccc(C(C)=O)s3)c2O1 (centres unmarked) [CBK307310],98.4
15,N=C(SC1CC(=O)N(c2ccc(C(=O)O)cc2)C1=O)N1N=C(c2ccccc2)CC1c1ccccc1 (centres unmarked) [CBK262446],90.9
16,CCc1nc2ccc(C(=O)Nc3ccc(NC(C)=O)cc3)cn2c1N(C)CC [CBK145483],94.5
17,COc1ccc(OC)c(NC(=O)COc2ccc(C(C)C)cc2)c1 [CBK263498],114
18,COc1ccc(Oc2c(C)n[nH]c2-c2ccc(O)cc2O)cc1 [CBK288239],96
19,Cc1cc(S(=O)(=O)Nc2n[nH]cc2C#N)c(C)cc1Cl [CBK044943],91.9
20,O=C(NCc1ccc(F)cc1)N1CCCC(CO)C1 (centres unmarked) [CBK156056],102
21,COc1ccc2cnc(C3CCCN(C(=O)C4CC4)C3)cc2c1C (centres unmarked) [CBK284716],90.8
22,Oc1ccc(-c2n[nH]c(=S)n2-c2ccccc2)cc1 [CBK014887],113

row,Compound,"viability at 28.5 h, 10 µM [%]"
1,COc1ccc(-c2nc3cc(NC(=O)COc4ccccc4[N+](=O)[O-])ccc3o2)cc1Cl [CBK263412],99.2
2,O=C(c1ccccc1O)N1CCN(Cc2cc(=O)n3ccsc3n2)CC1 [CBK306096],90.2
3,CCc1nc2ccc(C(=O)N(C)CCN(C)C)cn2c1N(C)C(=O)C1CCCCC1 [CBK145771],93.8
4,CCC(O)CNS(=O)(=O)c1ccc(OC(F)(F)F)cc1 (centres unmarked) [CBK043557],97.9
5,Cc1cccc2c1OCC[C@@H]2Oc1cncc(N2CCNCC2)n1 [CBK172310G],101
6,Cc1ccccc1-c1ccccc1CC1(C(N)=O)CCN(C(=O)CCc2ccccc2)CC1 [CBK285725],102
7,O=C(NCc1ccccc1)c1cnccc1C(F)(F)F [CBK200194],92.3
8,Cc1ccccc1Nc1nnc(-c2ccc(C(=O)NCCO)cc2)c2ccccc12 [CBK263743],86.4
9,Cc1ccc(-c2cc(O)n(-c3nc(C)cc(C)n3)n2)cc1 [CBK270165],97.1
10,CC(C)C(=O)N1CC(C)N(CCCC(c2ccc(F)cc2)c2ccc(F)cc2)CC1C (centres unmarked) [CBK024961C],97.6
11,CC(=O)Nc1cccc(NC(=O)CSc2ccc(C(F)(F)F)cc2[N+](=O)[O-])c1 [CBK264758],103
12,COc1c(Cl)ccc(Cl)c1C(=O)OCC(=O)O [CBK264596],115
13,CCOC(=O)c1cnc2ccc(F)cc2c1NCc1ccco1 [CBK265834],97
14,CCCN1CCN(CC(=O)NCc2ccco2)CC1 [CBK270300],84.2
15,O=C(Cn1cccnc1=O)NC(c1ccc2c(c1)CCO2)C1CC(O)C1 (centres unmarked) [CBK306595],75.3
16,CC(=O)NC(=NOCc1ccc(Br)cc1)c1nonc1NC(C)=O [CBK265342],87.8
17,COc1cc(-c2ccc(NCCn3cc[nH]c3=O)nc2)cc(OC)c1OC [CBK036907],106
18,Cc1ccc(/C=N/NC(=O)C(C)Oc2ccccc2Br)o1 (centres unmarked) [CBK262226],103
19,O=C(NCCSCc1ccco1)C1CCC1 [CBK057516],119
20,CCCn1c(SCC(=O)N2c3ccc(F)cc3CCC2C)nnc1-c1cccnc1 (centres unmarked) [CBK059187],94
21,O=C(Cn1nc(C(=O)O)c2ccccc2c1=O)c1ccc(C2CCCCC2)cc1 [CBK297538],89.5
22,NC(=O)c1ccc2[nH]c(-c3cscn3)nc2c1 [CBK017800],86

row,Compound,"viability at 28.5 h, 10 µM [%]"
1,O=C(Nc1cccc2ccccc12)O[C@@H]1CO[C@H]2[C@@H]1OC[C@@H]2NC(=O)c1cccs1 [CBK289468],103
2,O=S1(=O)N=c2cc3c(c4cccc1c24)=Nc1ccccc1N3 [CBK020253],89.9
3,Cc1cccc(-c2csc3c(=O)[nH]c(N4CCC(C(=O)N5CCOCC5)CC4)nc23)c1 [CBK215644],89.7
4,C[S+]([O-])CCC(NS(=O)(=O)c1ccccc1)C(=O)O (centres unmarked) [CBK268267],93.2
5,COCCN(Cc1cnn(C)c1)C(=O)NCc1nc2c(C)cccc2o1 [CBK307642],86.8
6,O=C(Nc1ccncc1)OCCc1cccnc1 [CBK200125],94.2
7,Cc1nc(-c2ccccc2)sc1C(=O)C1=C(O)C(=O)N(CCN2CCOCC2)C1c1cccs1 (centres unmarked) [CBK266520],102
8,Cc1cc(O)cc(C2CCCN(C(=O)CC3CCCC3)C2)n1 (centres unmarked) [CBK283422],107
9,CC(=O)Nc1ccc(-c2ccc(COC3CCN(C(=O)Cc4ccc(C#N)cc4)CC3)cc2)cc1 [CBK149225],91.7
10,COCCNC(=O)N1CCCC(CO)C1 (centres unmarked) [CBK156040],88.3
11,Cc1cc2ncc3c(n2n1)CC1CCC3N1Cc1ccccc1 (centres unmarked) [CBK282266],104
12,Nc1ncc(-c2ccccc2)nc1NC1CCOCC1 [CBK063748],97.3
13,CC(=O)NCCSc1ccc(C(F)(F)F)cn1 [CBK105298],94.3
14,Cc1ccc(SCCCn2cnc3ccccc32)cc1 [CBK267821G],93.7
15,Cn1ccnc1SCCNC(=O)c1cccc(Cn2cccn2)c1 [CBK282112],105
16,O=c1c2ccccc2nc2n1CCN(Cc1cccs1)CC2 [CBK284815],92.3
17,CO[C@H]1CNC[C@@H]1NC(=O)c1cccc2c1NCCC2 [CBK307421],115
18,O=C1Nc2ccc(Br)cc2/C1=C1/SC(=S)N(C(Cc2ccccc2)C(=O)O)C1=O (centres unmarked) [CBK263521],95.6
19,COc1cccc(NC(=S)NCCCN2CCOCC2)c1 [CBK264548],123
20,CCOC(=O)c1cnc2ccccc2c1NCCN1CCOCC1 [CBK304328],101
21,Cc1nccn1CCC1CCN(C(=O)c2cnn(C)c2)CC1 [CBK281951],89.3
22,C=CCNC(=O)N1CC[C@H]2CC(=O)N(Cc3ccc4c(c3)OCO4)CC[C@H]2C1 [CBK288794],97.8

row,Compound,"viability at 28.5 h, 10 µM [%]"
1,CCS(=O)(=O)N1CC2CCCC(O)(c3cccc(F)c3)C2C1 (centres unmarked) [CBK283108],99.3
2,COc1ccc(C(C)C)cc1-c1nc2ncccc2cc1N [CBK067614],95.8
3,CN(C)c1ccc(-c2nccnc2NS(=O)(=O)c2ccccc2C(F)(F)F)cc1 [CBK050801],92.8
4,O=C(CN1CCCCCC1)N/N=C/c1ccc(F)c(Br)c1 [CBK261596],94.7
5,O=C(COc1cccc2ccccc12)NNC(=O)C1CCCO1 (centres unmarked) [CBK263007],89.7
6,CC(C)(C)OC(=O)N[C@@H](Cc1ccccc1)C(=O)NC[C@H]1CC[C@H](C(=O)O)CC1 [CBK286719],81.9
7,O=C(COc1ccc(S(=O)(=O)N2CCCCC2)cc1Cl)N1CCc2ccccc2C1 [CBK269510],88
8,CS(=O)(=O)c1ccc(-c2cnc3[nH]c(=O)n(-c4ccc5[nH]ccc5c4)c3n2)cc1 [CBK064691],96.6
9,Cn1cc(C2CCCCCN2S(=O)(=O)c2ccc(F)cc2)cn1 (centres unmarked) [CBK284739],91.7
10,CC(C)NC(=O)[C@H]1CN(C(=O)c2cc[nH]n2)C[C@@H]1c1ccnc(N2CCCC2)n1 [CBK285526],89.3
11,CN1CCN(c2ccc(NC(=O)c3ccc([N+](=O)[O-])o3)cc2)CC1 [CBK269727],18.8
12,CC(OCc1ccccc1)C(=O)NCC1(N2CCOCC2)CCSC1 (centres unmarked) [CBK305678],114
13,Cc1nc(C)c(CC(=O)Nc2cccc(CN3CCCC3)c2)s1 [CBK281426],105
14,O=C(NCCN1CCOCC1)c1cc(Br)cnc1N1CCOCC1 [CBK076202],104
15,CC(=O)c1csc(NC(=O)Cn2ccc3ccc(F)cc32)n1 [CBK282572],90.5
16,O=C1NCCNC(=O)C2(C/C=C/COc3ccccc31)CCN(C(=O)c1ccc3[nH]nnc3c1)CC2 [CBK292000],106
17,O=C(O)CCC(=O)Nc1nc(-c2ccccc2)cs1 [CBK286947],109
18,CCSc1nc(N)cc(O)n1 [CBK086474],90.5
19,O=C(Nc1ccc2nc(-c3ccco3)c(-c3ccco3)nc2c1)N1CCCCCC1 [CBK267253],85.4
20,O=C(Nc1ccnn1Cc1cccs1)c1cc(=O)[nH]c2ccccc12 [CBK295606],102
21,S=C(Nc1ccccc1)N(CCN1CCOCC1)Cc1cccc(Cl)c1 [CBK267975],103

# Same assay, conditions: human, hela cells, % viability, bulk resorufin, single well
row,Compound,"viability at 28.5 h, 10 µM [%]"
1,CC1CCN(c2ccc(C(C)NC(=O)CCC3C(=O)NC(=O)NC3=O)cc2)CC1 (centres unmarked) [CBK285849],96.9
